According to patent publication US11850286B2, “Sulfamide linker, conjugates thereof, and methods of preparation” (priority 2014, dated 2023):

Assay: Determination of HPLC retention time (RP-HPLC, polarity)
Format: physicochemical
Experimental: Samples of compounds 19-38 were injected on an HPLC system equipped with an Phenomenex Luna C18(2) 5μ, 150×4.6 mm, 100 Å column and eluted with either a gradient of 10% MeCN (0.1% TFA)/90% water (0.1% TFA) to 90% MeCN (0.1% TFA)/10% water (0.1% TFA) or a gradient of 10% MeCN/90% 10 mM potassium phosphate buffer pH 7.4 to 90% MeCN/10% 10 mM potassium phosphate buffer pH 7.4. The retention times obtained for these compounds are depicted in Table 3.

[1] = RP-HPLC C18, MeCN/10 mM potassium phosphate buffer pH 7.4 gradient
[2] = RP-HPLC C18, MeCN/water gradient with 0.1% TFA

| SMILES | retention time [1] | retention time [2] |
| --- | --- | --- |
| O=C(CCCCCCNC(=O)OCC1C2CCC#CCCC21)NS(=O)(=O)NCc1ccccc1 (centres unmarked) [Compound 20] | 9.6 min | 11.6 min |
| COc1cc2cc(c1Cl)N(C)C(=O)C[C@H](OC(=O)[C@H](C)N(C)C(=O)CCCCCNC(=O)CCOCCOCCOCCOCCOCCOCCOCCOCCOCCOCCOCCOCCOCCOCCOCCOCCOCCOCCOCCOCCOCCOCCOCCOCCNC(=O)OCC1C3CCC#CCCC31)[C@]1(C)O[C@H]1[C@H](C)[C@@H]1C[C@@](O)(NC(=O)O1)[C@H](OC)/C=C/C=C(\C)C2 (some centres unmarked) [Compound 32] | 9.7 min | 9.7 min |
| O=C(CCCCCCNC(=O)OCC1C2CCC#CCCC21)NCc1ccccc1 (centres unmarked) [Compound 19, BCN-Heptanoic Acid Benzylamide] | 11.4 min | 11.4 min |
| COc1cc2cc(c1Cl)N(C)C(=O)C[C@H](OC(=O)[C@H](C)N(C)C(=O)CCCCCNC(=O)CCOCCOCCOCCOCCNC(=O)OCC1C3CCC#CCCC31)[C@]1(C)O[C@H]1[C@H](C)[C@@H]1C[C@@](O)(NC(=O)O1)[C@H](OC)/C=C/C=C(\C)C2 (some centres unmarked) [Compound 30] | 10.6 min | 10.5 min |
| COc1cc2cc(c1Cl)N(C)C(=O)C[C@H](OC(=O)[C@H](C)N(C)C(=O)CCCCCNC(=O)OCc1ccc(NC(=O)[C@H](CCCNC(N)=O)NC(=O)[C@@H](NC(=O)OCCOCCNS(=O)(=O)NC(=O)OCC3C4CCC#CCCC43)C(C)C)cc1)[C@]1(C)O[C@H]1[C@H](C)[C@@H]1C[C@@](O)(NC(=O)O1)[C@H](OC)/C=C/C=C(\C)C2 (some centres unmarked) [Compound 36] | 9.3 min | 10.4 min |
| COc1cc2cc(c1Cl)N(C)C(=O)C[C@H](OC(=O)[C@H](C)N(C)C(=O)CCCCCNC(=O)OCc1ccc(NC(=O)[C@H](CCCNC(N)=O)NC(=O)[C@@H](NC(=O)OCCN(CCOC(=O)N[C@H](C(=O)N[C@@H](CCCNC(N)=O)C(=O)Nc3ccc(COC(=O)NCCCCCC(=O)N(C)[C@@H](C)C(=O)O[C@H]4CC(=O)N(C)c5cc(cc(OC)c5Cl)C/C(C)=C/C=C/[C@@H](OC)[C@@]5(O)C[C@H](OC(=O)N5)[C@@H](C)[C@@H]5O[C@@]45C)cc3)C(C)C)S(=O)(=O)NC(=O)OCC3C4CCC#CCCC43)C(C)C)cc1)[C@]1(C)O[C@H]1[C@H](C)[C@@H]1C[C@@](O)(NC(=O)O1)[C@H](OC)/C=C/C=C(\C)C2 (some centres unmarked) [Compound 37] | 10.5 min | 11.2 min |
| O=C(NCCCCCOC(=O)NS(=O)(=O)NCc1ccccc1)OCC1C2CCC#CCCC21 (centres unmarked) [Compound 21] | 9.2 min | 11.6 min |
| COc1cc2cc(c1Cl)N(C)C(=O)C[C@H](OC(=O)[C@H](C)N(C)C(=O)CCCCCNC(=O)OCc1ccc(NC(=O)[C@H](CCCNC(N)=O)NC(=O)[C@@H](NC(=O)OCCN(CCOC(=O)N[C@H](C(=O)N[C@@H](CCCNC(N)=O)C(=O)Nc3ccc(COC(=O)NCCCCCC(=O)N(C)[C@@H](C)C(=O)O[C@H]4CC(=O)N(C)c5cc(cc(OC)c5Cl)C/C(C)=C/C=C/[C@@H](OC)[C@@]5(O)C[C@H](OC(=O)N5)[C@@H](C)[C@@H]5O[C@@]45C)cc3)C(C)C)S(=O)(=O)NC(=O)OCCOCCNS(=O)(=O)NC(=O)OCC3C4CCC#CCCC43)C(C)C)cc1)[C@]1(C)O[C@H]1[C@H](C)[C@@H]1C[C@@](O)(NC(=O)O1)[C@H](OC)/C=C/C=C(\C)C2 (some centres unmarked) [Compound 38] | 9.5 min | 11.1 min |
| CN(C(=O)OCCCCCNC(=O)OCC1C2CCC#CCCC21)S(=O)(=O)NCc1ccccc1 (centres unmarked) [Compound 22] | 12.6 min | 12.7 min |
| COc1cc2cc(c1Cl)N(C)C(=O)C[C@H](OC(=O)[C@H](C)N(C)C(=O)CCCCCNC(=O)CCOCCOCCOCCOCCOCCOCCOCCOCCOCCOCCOCCOCCNC(=O)OCC1C3CCC#CCCC31)[C@]1(C)O[C@H]1[C@H](C)[C@@H]1C[C@@](O)(NC(=O)O1)[C@H](OC)/C=C/C=C(\C)C2 (some centres unmarked) [Compound 31] | 10.1 min | 10.1 min |
